# Source: patent publication US6241963A, “Dopamine and serotonin transporter ligands and imaging agents” (priority 1996, dated 2001)
# “And” between values parts separate entries of the source, which are not always exact repeats. Identical values can stand only once. “Also recorded” adds a separate entry of the source. Like-named read-outs stand apart in the source and are kept apart here.
# Columns and labels:
# dopamine transporters [1] = conditions: cited from earlier work; for Literature binding / localization / biodistribution, in words: in vivo; for Time for reaching optimal uptake ratio / equilibrium: basal ganglia versus frontal cortex
# [2] = type: in vivo, Male Sprague-Dawley rats; conditions: rats, iv
# Protocol: Male Sprague-Dawley rats (225-300 g) allowed free access to food and water were used for in vivo biodistribution studies. Kung, 1984, supra; Kung, 1985, supra. While under ether anesthesia, 0.2 mL of a saline solution containing 1.19a, 1.19b, 1.20a, 1.20b or 1.21 (50-100 μCi) was injected directly into the femoral vein of rats, and the rats were sacrificed by cardiac excision at various time points post-injection. The organs of interest were removed and weighed, and the radioactivity was counted with an automatic gamma counter (Packard 5000). The percentage dose per organ was calculated by a comparison of the tissue counts to suitably diluted aliquots of the injected material. Total activities of blood and muscle were calculated under the assumption that they were 7% and 40% of the total body weight, respectively.
# (§1) The major criteria for determining the potential usefulness of in vivo dopamine transporter imaging agents are based on an animal biodistribution study. In this case, rats were used as an animal model. After an intravenous injection of the Tc-99m labeled compounds, the values of initial brain uptake (% dose/whole organ) at 2 minutes post intravenous injection are used to measure the ability to penetrate the intact blood-brain barrier. Compounds displaying higher brain uptake are the better agents (minimum requirement >0.1% dose in brain). The second criteria is the specific uptake in the striatum region of the brain, where dopamine transporters are located. The uptake value (% dose/gram) of the striatum (ST) is divided by the background area, cerebellum (CB; essentially devoid of dopamine transporter); the ratio of ST/CB is an indicator for specific uptake (minimum requirement for ST/CB >1.5). Five structurally similar tropane derivatives were examined in this biological study. (Tables 1.1 to 1.4).
# Male Sprague-Dawley rats (225-300 g) that were allowed free access to food and water were used for in vivo biodistribution studies. (Kung, 1984, supra; Kung, 1985, supra). While under halothane anesthesia, 0.2 mL of a saline solution containing 3.24 to 3.34 ([…]) was injected directly into the femoral vein of rats, and they were sacrificed by cardiac excision at various time points post-injection. The organs of interest were removed and weighed, and the radioactivity was counted with an automatic gamma counter (Packard 5000). The percentage dose per organ was calculated by a comparison of the tissue counts to suitably diluted aliquots of the injected material. Total activities of blood and muscle were calculated under the assumption that they were 7% and 40% of the total body weight, respectively.
# dopamine transporters [3] = target: dopamine transporters (Rattus norvegicus, UniProt P23977); type: in vivo, Male Sprague-Dawley rats; conditions: rats, iv
# Chain of dopamine transporters (Rattus norvegicus, UniProt P23977) (P23977 whole entry): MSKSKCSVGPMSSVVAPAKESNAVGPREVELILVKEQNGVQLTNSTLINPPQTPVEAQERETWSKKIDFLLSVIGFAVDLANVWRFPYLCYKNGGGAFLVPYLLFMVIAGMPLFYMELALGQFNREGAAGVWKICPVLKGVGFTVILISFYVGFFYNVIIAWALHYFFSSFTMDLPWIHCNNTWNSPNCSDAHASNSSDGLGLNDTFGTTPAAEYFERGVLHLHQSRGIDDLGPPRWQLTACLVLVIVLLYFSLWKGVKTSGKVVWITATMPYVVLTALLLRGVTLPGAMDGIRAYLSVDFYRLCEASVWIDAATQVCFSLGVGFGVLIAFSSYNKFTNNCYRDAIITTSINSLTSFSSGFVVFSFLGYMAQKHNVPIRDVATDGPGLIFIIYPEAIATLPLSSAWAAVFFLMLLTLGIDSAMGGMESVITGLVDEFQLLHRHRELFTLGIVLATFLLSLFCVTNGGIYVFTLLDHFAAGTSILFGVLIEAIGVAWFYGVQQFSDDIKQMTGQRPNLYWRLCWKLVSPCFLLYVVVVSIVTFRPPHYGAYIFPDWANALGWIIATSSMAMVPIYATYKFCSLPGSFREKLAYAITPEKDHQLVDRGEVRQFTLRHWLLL
# Protocol: For dopamine transporter imaging agents, the target area of the brain is the striatum, where dopamine transporters are highly concentrated. The cerebellum region is suitable for use as the background region, because it has no dopamine transporters. The specific uptake is measured by the ratio of % dose/gram of striatum divided by % dose/gram of cerebellum (ST/CB ratio)--the higher the value, the better the specific uptake, and the more promising as a dopamine transporter imaging agent.
# (§2) Regional brain distribution in rats was obtained after an injection of 1.19a, 1.19b, 1.20a, 1.20b or 1.21. Samples from different brain regions (cortex, striatum, hippocampus, and cerebellum) were dissected, weighed and counted, and the percentage dose per gram of sample was calculated by comparing the sample counts with the count of the diluted initial dose. The uptake ratio of each region was obtained by dividing the percentage dose per gram of that region by that of the cerebellum. For blocking studies, rats were injected with either β-CIT or haloperidol (iv, 1 mg/Kg) 5 min prior to injection of 1.19a. The rats were dissected and brain tissue samples were counted as described above. The specific uptake of the compound was expressed as ratio of ST/CB (% dose/g of striatum divided by the same of cerebellum).
# as §1
# as §2, with “3.24 to 3.34.” for “1.19a, 1.19b, 1.20a, 1.20b or 1.21.”, “3.25.” for “1.19a.”, “above.” for “above. The specific uptake of the compound was expressed as ratio of ST/CB (% dose/g of striatum divided by the same of cerebellum).”
# dopamine transporter = experiment: Blocking studies in rats (pretreatment or co-injection with competing agent); type: in vivo, Male Sprague-Dawley rats; conditions: 1 mg/kg iv, 5 min before tracer, rats
# Protocol: as §2
# as §2, with “3.24 to 3.34.” for “1.19a, 1.19b, 1.20a, 1.20b or 1.21.”, “3.25.” for “1.19a.”, “above.” for “above. The specific uptake of the compound was expressed as ratio of ST/CB (% dose/g of striatum divided by the same of cerebellum).”
smiles,measurement,setting,value
COC(=O)[C@H]1[C@@H](OC(=O)c2ccccc2)C[C@@H]2CC[C@H]1N2C [cocaine],"Literature binding / localization / biodistribution, in words",dopamine transporters [1],largely concentrated in the basal ganglia
"COC(=O)[C@H]1[C@@H](c2ccc(Cl)cc2)C[C@@H]2CC[C@H]1N2CCC[N+]12CC[S][99Tc-]13(=[O])[S]CC[N]3CC2 (single isomer, unassigned; peak a) [peak A of (2.6a)]","Blood uptake, 2 min",[2],2.41 ± 0.33 % dose/organ
same,"Brain uptake, 2 min",[2],0.25 ± 0.04 % dose/organ
same,"Heart uptake, 2 min",[2],0.79 ± 0.03 % dose/organ
same,"Kidney uptake, 2 min",[2],2.97 ± 0.09 % dose/organ
same,"Liver uptake, 2 min",[2],14.29 ± 2.56 % dose/organ
same,"Lung uptake, 2 min",[2],15.63 ± 2.31 % dose/organ
same,"Muscle uptake, 2 min",[2],7.78 ± 0.32 % dose/organ
same,"Skin uptake, 2 min",[2],1.59 ± 0.68 % dose/organ
same,"Spleen uptake, 2 min",[2],0.42 ± 0.10 % dose/organ
same,"Blood uptake, 30 min",[2],1.16 ± 0.06 % dose/organ
same,"Brain uptake, 30 min",[2],0.13 ± 0.02 % dose/organ
same,"Heart uptake, 30 min",[2],0.22 ± 0.02 % dose/organ
same,"Kidney uptake, 30 min",[2],1.25 ± 0.11 % dose/organ
same,"Liver uptake, 30 min",[2],20.87 ± 2.23 % dose/organ
same,"Lung uptake, 30 min",[2],9.65 ± 1.37 % dose/organ
same,"Muscle uptake, 30 min",[2],10.41 ± 1.26 % dose/organ
same,"Skin uptake, 30 min",[2],5.69 ± 0.73 % dose/organ
same,"Spleen uptake, 30 min",[2],0.42 ± 0.05 % dose/organ
COC(=O)C1C(c2ccc(F)cc2)CC2CCC1N2CCCN(CC[S-])CC([O-])=NCC[S-].[O]=[99Tc+3] (centres unmarked) [Technepine],"Literature binding / localization / biodistribution, in words",dopamine transporters [1],poor biodistribution
same,"Literature binding / localization / biodistribution, in words",dopamine transporters [1]; listed as technepine,less favorable biological properties
CN1[C@H]2CC[C@@H]1[C@@H](C[N+]13CC[S][99Tc-]14(=[O])[S]CC[N]4CC3)[C@@H](c1ccc(Br)cc1)C2 (some centres unmarked) [Compound 1.20c],"Brain uptake, 2 min",[2],0.41 ± 0.03 % dose/organ
same,"Brain uptake, 60 min",[2],0.18 ± 0.01 % dose/organ
same,"Brain uptake and specific striatal uptake, in words",dopamine transporters [3],high initial uptake and high specific retention in brain
same,"ST/CB ratio, 60 min",dopamine transporters [3],2.82 and 2.82 ± 0.19
"COC(=O)[C@H]1[C@@H](c2ccc(F)cc2)C[C@@H]2CC[C@H]1N2C [CFT (WIN35,428)]","Literature binding / localization / biodistribution, in words",dopamine transporters [1],much higher binding affinity and selectivity to dopamine reuptake sites
COC(=O)[C@H]1[C@@H](c2ccc([123I])cc2)C[C@@H]2CC[C@H]1N2CCCF [[^123 I]-β-CIT-FP],Time for reaching optimal uptake ratio / equilibrium,dopamine transporters [1],less than one hour
"COC(=O)[C@H]1[C@@H](c2ccc(I)cc2)C[C@@H]2CC[C@H]1N2C [β-CIT, N-methyl-2b-carbomethoxy-3b-(4-iodophenyl)tropane, reference compound]",Effect of pretreatment on specific striatal uptake of tracer,dopamine transporter,could be blocked; also recorded: showed blocking of the specific uptake
same,Effect of pretreatment on specific striatal uptake of tracer,dopamine transporter; listed as RTI-55,could be blocked
same,Time for reaching optimal uptake ratio / equilibrium,dopamine transporters [1],> 18 h
same,"Literature binding / localization / biodistribution, in words",dopamine transporters [1],much higher binding affinity and selectivity to dopamine reuptake sites
"O=C(CCCN1CCC(O)(c2ccc(Cl)cc2)CC1)c1ccc(F)cc1 [haloperidol, reference compound]",Effect of pretreatment on specific striatal uptake of tracer,dopamine transporter,no blocking effect was observed
"CN1[C@H]2CC[C@@H]1[C@@H](C[N+]13CC[S][99Tc-]14(=[O])[S]CC[N]4CC3)[C@@H](c1ccc(Cl)cc1)C2 (single isomer, unassigned; peak b) [peak B (1.19a)]","Blood uptake, 2 min",[2],4.02 ± 0.20 % dose/organ
same,"Brain uptake, 2 min",[2],0.28 ± 0.01 % dose/organ
same,"Heart uptake, 2 min",[2],1.28 ± 0.15 % dose/organ
same,"Kidney uptake, 2 min",[2],4.47 ± 0.69 % dose/organ
same,"Liver uptake, 2 min",[2],9.07 ± 1.66 % dose/organ
same,"Lung uptake, 2 min",[2],6.00 ± 1.11 % dose/organ
same,"Muscle uptake, 2 min",[2],41.46 ± 11.33 % dose/organ
same,"Skin uptake, 2 min",[2],3.43 ± 0.62 % dose/organ
same,"Spleen uptake, 2 min",[2],0.27 ± 0.03 % dose/organ
same,"Brain uptake, 2 min",[2]; listed as Peak B,0.28 % dose/organ
same,"Blood uptake, 60 min",[2],1.89 ± 0.21 % dose/organ
same,"Brain uptake, 60 min",[2],0.12 ± 0.02 % dose/organ
same,"Heart uptake, 60 min",[2],0.19 ± 0.06 % dose/organ
same,"Kidney uptake, 60 min",[2],1.87 ± 0.80 % dose/organ
same,"Liver uptake, 60 min",[2],18.71 ± 2.54 % dose/organ
same,"Lung uptake, 60 min",[2],1.23 ± 0.89 % dose/organ
same,"Muscle uptake, 60 min",[2],8.60 ± 2.51 % dose/organ
same,"Skin uptake, 60 min",[2],4.11 ± 0.62 % dose/organ
same,"Spleen uptake, 60 min",[2],0.41 ± 0.24 % dose/organ
same,"ST/CB ratio, 60 min",dopamine transporters [3],3.79
"CN1[C@H]2CC[C@@H]1[C@@H](C[N+]13CC[S][99Tc-]14(=[O])[S]CC[N]4CC3)[C@@H](c1ccc(Cl)cc1)C2 (single isomer, unassigned; peak a) [Peak A (1.19a)]","Blood uptake, 2 min",[2],1.98 ± 0.19 % dose/organ
same,"Brain uptake, 2 min",[2],0.5 % dose/organ and 0.50 ± 0.06 % dose/organ
same,"Heart uptake, 2 min",[2],1.76 ± 0.09 % dose/organ
same,"Kidney uptake, 2 min",[2],5.47 ± 1.04 % dose/organ
same,"Liver uptake, 2 min",[2],9.55 ± 2.19 % dose/organ
same,"Lung uptake, 2 min",[2],9.68 ± 0.51 % dose/organ
same,"Muscle uptake, 2 min",[2],33.61 ± 4.31 % dose/organ
same,"Skin uptake, 2 min",[2],2.73 ± 0.39 % dose/organ
same,"Spleen uptake, 2 min",[2],0.27 ± 0.04 % dose/organ
same,"Blood uptake, 60 min",[2],1.00 ± 0.15 % dose/organ
same,"Brain uptake, 60 min",[2],0.21 ± 0.01 % dose/organ
same,"Heart uptake, 60 min",[2],0.21 ± 0.00 % dose/organ
same,"Kidney uptake, 60 min",[2],2.04 ± 0.21 % dose/organ
same,"Liver uptake, 60 min",[2],17.75 ± 1.81 % dose/organ
same,"Lung uptake, 60 min",[2],3.06 ± 0.28 % dose/organ
same,"Muscle uptake, 60 min",[2],14.98 ± 0.49 % dose/organ
same,"Skin uptake, 60 min",[2],3.56 ± 0.65 % dose/organ
same,"Spleen uptake, 60 min",[2],0.46 ± 0.18 % dose/organ
same,"ST/CB ratio, 60 min",dopamine transporters [3],2.72
"COC(=O)[C@H]1[C@@H](c2ccc(Cl)cc2)C[C@@H]2CC[C@H]1N2CCC[N+]12CC[S][99Tc-]13(=[O])[S]CC[N]3CC2 (single isomer, unassigned; peak b) [peak B of (2.6a)]","Blood uptake, 2 min",[2],3.96 ± 0.70 % dose/organ
same,"Brain uptake, 2 min",[2],0.19 ± 0.041 % dose/organ
same,"Heart uptake, 2 min",[2],0.70 ± 0.21 % dose/organ
same,"Kidney uptake, 2 min",[2],2.03 ± 0.45 % dose/organ
same,"Liver uptake, 2 min",[2],19.56 ± 3.21 % dose/organ
same,"Lung uptake, 2 min",[2],19.16 ± 2.06 % dose/organ
same,"Muscle uptake, 2 min",[2],9.92 ± 1.04 % dose/organ
same,"Skin uptake, 2 min",[2],1.25 ± 0.17 % dose/organ
same,"Spleen uptake, 2 min",[2],0.42 ± 0.10 % dose/organ
same,"Blood uptake, 30 min",[2],1.82 ± 0.43 % dose/organ
same,"Brain uptake, 30 min",[2],0.094 ± 0.026 % dose/organ
same,"Heart uptake, 30 min",[2],0.24 ± 0.08 % dose/organ
same,"Kidney uptake, 30 min",[2],1.24 ± 0.18 % dose/organ
same,"Liver uptake, 30 min",[2],28.57 ± 2.94 % dose/organ
same,"Lung uptake, 30 min",[2],12.51 ± 1.46 % dose/organ
same,"Muscle uptake, 30 min",[2],8.09 ± 1.686 % dose/organ
same,"Skin uptake, 30 min",[2],3.25 ± 0.76 % dose/organ
same,"Spleen uptake, 30 min",[2],0.67 ± 0.17 % dose/organ
COC(=O)C1C(c2ccc(Cl)cc2)CC2CCC1N2CCC[N+]12CC[S][99Tc-]13(=[O])[S]CC[N]3CC2 (mixture of isomers) [Compound 2.6a],"Brain uptake, 2 min",[2],0.27 ± 0.02 % dose/organ
same,"Brain uptake, 30 min",[2],0.11 ± 0.02 % dose/organ
same,"Brain uptake and specific striatal uptake, in words",dopamine transporters [3],displayed a significant brain uptake and specific uptake to the striatum area of the rat brain
